The supplement of paper PMC10307832

Key:
Experiment in all cases: relative viability (nuclei count vs DMSO), 5 days (fraction); higher = more cells survive
[1] = compound: C1=CC2=NC=CN=C2C=C1/C=C/3\C(=O)NC(=O)S3 + CC(=O)Nc1cccc(-n2c(=O)n(C3CC3)c(=O)c3c(Nc4ccc(I)cc4F)n(C)c(=O)c(C)c32)c1 [Trametinib] (partner 0.02 µM)
Method in brief: (§1)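 Dosing by pin tool came one day after lung cancer cell lines were seeded in 1536-well plates, using either one drug or a fixed anchor-drug dose plus five library-drug doses (not always all listed) in √10 steps. After 5 days, nuclei were counted on 4× images. Relative viability is treated-well nuclei count divided by vehicle-well nuclei count, and values are medians of duplicate plates.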

[2] = compound: C1=CC2=NC=CN=C2C=C1/C=C/3\C(=O)NC(=O)S3 + CC(=O)c1c(C)c2cnc(Nc3ccc(N4CCNCC4)cn3)nc2n(C2CCCC2)c1=O [Palbociclib] (partner 0.5 µM)
Method in brief: as §1

[3] = compound: C1=CC2=NC=CN=C2C=C1/C=C/3\C(=O)NC(=O)S3 + CC1(C)CCC(c2ccc(Cl)cc2)=C(CN2CCN(c3ccc(C(=O)NS(=O)(=O)c4ccc(N[C@H](CCN5CCOCC5)CSc5ccccc5)c(S(=O)(=O)C(F)(F)F)c4)cc3)CC2)C1 [Navitoclax] (partner 0.5 µM)
Method in brief: as §1

[4] = compound: C1=CC2=NC=CN=C2C=C1/C=C/3\C(=O)NC(=O)S3 + C[C@]1(O)C[C@@H](c2nc(-c3ccc4ccc(-c5ccccc5)nc4c3)c3c(N)nccn32)C1 [Linsitinib] (partner 1 µM)
Method in brief: as §1

Cell Line	relative viability ([1]; first compound 0.02 µM)	relative viability ([1]; first compound 0.06325 µM)	relative viability ([1]; first compound 0.2 µM)	relative viability ([1]; first compound 0.6325 µM)	relative viability ([1]; first compound 2 µM)	relative viability ([2]; first compound 0.02 µM)	relative viability ([2]; first compound 0.06325 µM)	relative viability ([2]; first compound 0.2 µM)	relative viability ([2]; first compound 0.6325 µM)	relative viability ([2]; first compound 2 µM)	relative viability ([3]; first compound 0.02 µM)	relative viability ([3]; first compound 0.06325 µM)	relative viability ([3]; first compound 0.2 µM)	relative viability ([3]; first compound 0.6325 µM)	relative viability ([3]; first compound 2 µM)	relative viability ([4]; first compound 0.02 µM)	relative viability ([4]; first compound 0.06325 µM)	relative viability ([4]; first compound 0.2 µM)	relative viability ([4]; first compound 0.6325 µM)	relative viability ([4]; first compound 2 µM)
NCI-H647	0.459	0.52	0.545	0.444	0.389	0.314	0.488	0.41	0.363	0.342	0.945	1.36	1.08	1.14	1.25	1.13	1.51	1.41	1.1	1.08
NCI-H727	0.386	0.369	0.407	0.397	0.29	0.549	0.683	0.637	0.649	0.556	0.499	0.642	0.541	0.395	0.228	0.341	0.223	0.33	0.403	0.252
NCI-H838	0.537	0.47	0.555	0.454	0.366	0.217	0.25	0.233	0.179	0.17	1.1	1.32	1.13	1.02	1.11	0.955	1.03	0.958	0.913	1
NCI-H1355	0.385	0.432	0.462	0.413	0.382	0.359	0.419	0.401	0.359	0.358	0.87	1.01	1.05	1.03	0.951	0.805	0.782	0.843	0.79	0.804
NCI-H1395	1.01	0.974	1.06	0.978	1.02	0.621	0.58	0.642	0.622	0.594	1.13	1.42	1.21	1.17	1.02	1.37	1.28	1.25	0.939	1.14
NCI-H1437	0.475	0.448	0.534	0.45	0.329	0.306	0.297	0.328	0.305	0.277	1.03	1.1	1.12	1.07	0.93	0.899	1.2	1.05	0.979	0.969
NCI-H1651	0.821	0.642	0.86	0.849	0.725	0.495	0.503	0.507	0.515	0.453	0.989	1.03	0.915	0.981	1.08	0.894	1.03	0.989	0.916	0.939
NCI-H1666	0.826	0.813	0.87	0.958	0.696	0.608	0.749	0.629	0.651	0.675	0.9	0.954	0.913	0.989	0.919	0.789	0.848	0.807	0.843	0.911
